Values joined by “and” are separate entries in the source; they are usually repeats but may differ in a detail not shown here. Equal values may be shown once. Read-outs that look alike come from different tables or passages of the source. Starred links: 1 amine or outer side, 2 acyl side, 3 side chain; linkers in the order of their positions; H or OH if unused. Non-standard residues stand in square brackets, D forms with d. Residues, ends and D or L forms follow the SMILES beside them. No end group written: not given here. *: point of attachment. RhodamineB = CCN(CC)c1ccc2c(-c3ccccc3C(=O)*)c3ccc(=[N+](CC)CC)cc-3oc2c1; Trimesoyl = O=C(c1cc(C(=O)[*:2])cc(C(=O)[*:3])c1)[*:1]; 2Nal = N[C@@H](Cc1ccc2ccccc2c1)C(=O)O; Dap = NC[C@H](N)C(=O)O
Columns and labels:
[1] = pKa of CAP fluorophore; assay type: physicochemical; conditions: deprotonated state fluorescent
[2] = test system: HeLa cells; assay: Live-cell confocal microscopy of FITC-labeled peptides; assay type: cell-based, human; conditions: 5 μM
Protocol: To detect peptide internalization, 1 mL of HeLa cell suspension (5×10^4 cells) was seeded in a 35 mm glass-bottomed microwell dish (MatTek) and cultured overnight. Cells were gently washed with DPBS twice and treated with FITC labeled peptides (5 μM) and dextran^Rho (0.5 mg mL^−1) in phenol-red free DMEM containing 1% serum at 37° C. for 1 h in the presence of 5% CO2. After removal of the medium, the cells were gently washed with DPBS twice and incubated with 5 μM DRAQS in DPBS for 10 min. The cells were again washed with DPBS twice and imaged on a Visitech Infinity 3 Hawk 2D-array live cell imaging confocal microscope. Images were captured under the same parameters and adjusted under the same setting using MetaMorph (Molecular Devices).

[3] = test system: α-chymotrypsin and trypsin; assay: Peptide proteolysis stability assay; assay type: in vitro ADME; conditions: 37° C.
Protocol: The stability tests were carried out by slightly modifying a previously reported procedure (Frackenpohl, J et al. Chembiochem 2001, 2, 445). 24 μL of 1.5 mM peptide solution was incubated at 37° C. with 30 μL 50 μM of α-chymotrypsin and 30 μL 50 μM of trypsin in 200 μL of working buffer (50 mM Tris-HCl, pH 8.0, NaCl (100 mM), CaCl2 (10 mM)). At various time points (0-12 h), 40 μL aliquots were withdrawn and mixed with 40 μL of 15% trichloroacetic acid and incubated at 4° C. overnight. The final mixture was centrifuged at 15,000 rpm for 10 min in a microcentrifuge, and the supernatant was analyzed by reversed-phase HPLC equipped with a C18 column (Waters). The amount of remaining peptide (%) was determined by integrating the area underneath the peptide peak (monitored at 214 nm) and compared with that of control reaction (no proteases).

[4] = test system: HeLa cells; assay: FACS uptake of FITC-labeled peptides; assay type: cell-based, human; conditions: 5 μM, 2 h
[5] = test system: SUV2 (vesicles that mimic the negatively charged endosomal membrane of mammalian cells); assay: Fluorescence polarization membrane binding, SUV2
Description: (§1) Also discussed herein are the CPP sequences in Table 16. All uptake/delivery efficiencies are in Table 17 are relative to that of cFΦR4 (290-1F, 100%). SUV1 are small unilamellar vesicles that mimic the neutral outer membrane of mammalian cells [45% phosphatidylcholine (PC), 20% phosphatidylethanolamine (PE), 20% sphingomyelin (SM), and 15% cholesterol (CHO)]. SUV2 are small unilamellar vesicles that mimic the negatively charged endosomal membrane of mammalian cells [50% PC, 20% PE, 10% phosphatidylinositol (PI), and 20% bis(monoacylglycerol)phosphate].
(§2) Measurements were carried out fluorescence polarization using FITC-labeled cyclic peptides against increasing concentrations of vesicles. Experiments were performed at pH 7.4 and 5.5 (pH inside late endosomes).

[6] = test system: HeLa cells; assay: Cytoplasmic delivery of pCAP-containing peptides, flow cytometry; conditions: pCAP-containing peptide as cargo
[7] = test system: HEK293, MCF-7, A549, H1650, and H1299; assay: MTT cytotoxicity assay; assay type: cell-based, human
Protocol: MTT assays were performed to evaluate cyclic peptide's cytotoxicity against several mammalian cell lines (Mosmann, T. J. Immunol. Methods, 1983, 65, 55-63). One hundred μL of MCF-7, HEK293, H1299, H1650, A549 (1×10^5 cells/mL) cells were placed in each well of a 96-well culture plate and allowed to grow overnight. Varying concentrations of the peptide (5 or 50 μM) were added to the each well and the cells were incubated at 37° C. with 5% CO2 for 24 to 72 h. Ten μL of MTT stock solution was added into each well. Addition of 10 μL of the solution to the growth medium (no cell) was used as a negative control. The plate was incubated at 37° C. for 4 h. Then 100 μL of SDS-HCl solubilizing buffer was added into each well, and the resulting solution was mixed thoroughly. The plate was incubated at 37° C. for another 4 h. The absorbance of the formazan product was measured at 570 nm using a Molecular Devices Spectramax M5 plate reader. Each experiment was performed in triplicates and the cells without any peptide added were treated as control.

[8] = test system: HeLa cells; assay: Effect on endocytosis of dextran^Alexa488, flow cytometry; assay type: cell-based, human; conditions: 1 μM cFΦR4, 100 μM dextran^Alexa488, 30 min
Protocol: HeLa cells were treated with clear DMEM containing no supplement, 1 μM cFΦR4 only, 100 μM dextran^Alexa488 only, or both 1 μM cFΦR4 and 100 μM dextran^Alexa488. MFI, mean fluorescence intensity.
Following adherence, cells were treated with clear DMEM containing no supplement, 1 μM cFΦR4 peptide, 100 μM dextran^Alexa488 (Life Technologies, D-22910), or both 1 μM cyclic peptide and 100 μM dextran^Alexa488 for 30 min under standard cell culture conditions. The cells were washed with DPBS twice, removed from the plate with 0.25% trypsin, diluted into clear DMEM containing 10% FBS, pelleted at 300 g for 5 min, washed once with DPBS and resuspended in 200 μL of DPBS. Whole-cell dextran uptake was analyzed on a BD Accuri C6 flow cytometer using the manufacturer FL1 laser and filter set.

[9] = test system: cell type (e.g., HeLa cells); assay: Cellular uptake efficiency of cyclic CPPs; assay type: cell-based; conditions: relative to cFΦR4 (290-1F, 100%)
Protocol: In particular embodiments, uptake efficiency is determined by comparing (i) the amount of a cyclic cell-penetrating peptide of the invention internalized by a cell type (e.g., HeLa cells) to (ii) the amount of c(FΦRRRRQ) (290-1F) internalized by the same cell type. To measure cellular uptake efficiency, the cell type may be incubated in the presence of a cell-penetrating peptide of the invention for a specified period of time (e.g., 30 minutes, 1 hour, 2 hours, etc.) after which the amount of the cell-penetrating peptide internalized by the cell is quantified. Separately, the same concentration of c(FΦRRRRQ) (290-1F) is incubated in the presence of the cell type over the same period of time, and the amount of the second peptide internalized by the cell is quantified. Quantification can be achieved by fluorescently labeling the cell-penetrating peptide (e.g., with a FTIC dye) and measuring the fluorescence intensity using techniques well-known in the art.
as §1

[10] = test system: SUV1 (vesicles that mimic the neutral outer membrane of mammalian cells); assay: Fluorescence polarization membrane binding, SUV1
Description: as §1, §2

[11] = test system: mammalian cells; conditions: Qian et al. 2013; cited from earlier work
[12] = test system: HEK293 cells; assay: FACS uptake of rhodamine-labeled bicyclic vs monocyclic peptide; assay type: cell-based, human
Description: In recent years, there has been much interest in cyclic peptides as therapeutic agents and biomedical research tools (Driggers, E M et al. Nat. Rev. Drug Discov., 2008, 7, 608-624; Marsault, E and Peterson, M L. J. Med. Chem., 2011, 54, 1961-2004). For example, cyclic peptides are effective for inhibition of protein-protein interactions (Lian, W et al. J. Am. Chem. Soc., 2013, 135, 11990-11995; Liu, T et al. ACS Comb. Sci., 2011, 13, 537-546; Dewan, V et al. ACS Chem. Biol., 2012, 7, 761-769; Wu, X et al. Med. Chem. Commun., 2013, 4, 378-382), which are challenging targets for conventional small molecules. A major obstacle in developing cyclic peptide therapeutics is that they are generally impermeable to the cell membrane (Kwon, Y U and Kodadek, T. Chem. Biol., 2007, 14, 671-677; Rezai, T et al. J. Am. Chem. Soc., 2006, 128, 2510-2511; Chatterjee, J et al. Acc. Chem. Res., 2008, 41, 1331-1342). […] The bicyclic peptides were readily synthesized by forming three amide bonds between a trimesoyl scaffold and three amino groups on the corresponding linear peptide (i.e., the N-terminal amine, the side chain of a C-terminal diaminopropionic acid (Dap), and the side chain of a lysine (or ornithine, Dap) imbedded in between the CPP and target-binding motifs) (Lian, W et al. J. Am. Chem. Soc., 2013, 135, 11990-11995). […]

[13] = test system: NIH 3T3 cells; assay: Anti-pY western blot of global pY protein levels; assay type: cell-based; conditions: 0-500 nM, 2 h
Protocol: NIH 3T3 cells were cultured in full growth media to reach 80% confluence. The cells were starved in serum free media for 3 h and treated with different concentrations of cFΦR4-PTP1B or untagged PTP1B for 2 h, followed by 30 min incubation in media supplemented with 1 mM sodium pervanadate. The solutions were removed and the cells were washed with cold DPBS twice. The cells were detached and lysed in 50 mM Tris-HCl, pH 7.4, 150 mM NaCl, 1% NP-40, 10 mM sodium pyrophosphate, 5 mM iodoacetic acid, 10 mM NaF, 1 mM EDTA, 2 mM sodium pervanadate, 0.1 mg/mL phenylmethanesulfonyl fluoride, 1 mM benzamidine, and 0.1 mg/mL trypsin inhibitor. After 30 min incubation on ice, the cell lysate was centrifuged at 15,000 rpm for 25 min in a microcentrifuge. The total cellular proteins were separated by SDS-PAGE and transferred electrophoretically to PVDF membrane, which was immunoblotted using anti-pY antibody 4G10.
NIH 3T3 cells were incubated for 2 h in the presence of untagged PTP1B or cFΦR4-PTP1B and their global pY protein levels were analyzed by anti-pY western blotting (FIG. 12A). […] Several proteins in the 150-200 kD range were completely dephosphorylated upon the addition of 62 nM cFΦR4-PTP1B, whereas proteins of ˜80 kD remained phosphorylated at 500 nM cFΦR4-PTP1B.

[14] = Aqueous solubility; assay type: physicochemical

NC(Cc1cc(=O)oc2cc(O)ccc12)C(=O)O (centres unmarked) [CAP, coumaryl aminopropionic acid]
pKa [1]: 7.8

CH3CH2CH2CO-FΦRRRRUK(FITC)-NH2 [Peptide 2 (Example 2)]
Intracellular FITC fluorescence (confocal) [2]: much weaker intracellular fluorescence
Half-life with protease cocktail [3]: ~20 min
Mean fluorescence intensity (MFI), total intracellular FITC fluorescence [4]: 5530 arbitrary units (AU)

N=C(N)NCCC[C@@H]1NC(=O)[C@H](CCCNC(=N)N)NC(=O)[C@H](CCCNC(=N)N)NC(=O)[C@H](Cc2ccc3ccccc3c2)NC(=O)[C@H](Cc2ccccc2)NC(=O)[C@H](CCC(N)=O)NC(=O)[C@H](CCCNC(=N)N)NC1=O [cFΦR4, cyclo(FΦRRRRQ)] (cyclo(F[2Nal]RRRRQ))
Kd ([5]; pH 5.5, read-out: Membrane Binding KD (mM) SUV2 pH 5.5): 0.63 mM
Kd ([5]; pH 7.4, read-out: Membrane Binding KD (mM) SUV2 pH 7.4): 0.66 mM
Delivery efficiency higher than R9, Antp, and Tat [6]: 4-12 fold and 3.7-12 fold
Growth inhibition after 72 h ([7]; 50 μM): up to 20%
Growth inhibition after 24 or 48 h ([7]; up to 50 μM): no significant growth inhibition
Increase in internalization of dextran^Alexa488 [8]: 15%
Uptake Efficiency (%) [9]: 100%
Kd ([10]; pH 5.5, read-out: Membrane Binding KD (mM) SUV1 pH 5.5): 1.1 mM
Kd ([10]; pH 7.4, read-out: Membrane Binding KD (mM) SUV1 pH 7.4): 4 mM
Efficiency of entering cytoplasm and nucleus higher than nonaarginine (R9) [11]: 2-5 fold

[Tm(AAAAA)K(RRRRΦF)J]-K(Rho) (Trimesoyl-AAAAAKRRRR[2Nal]F[Dap]K(RhodamineB); linker (positions not given here) via Trimesoyl; not fully specified (C-terminus, bridges); printed as [Tm(AAAAA)K(RRRRΦF)J]-K(Rho)) [bicyclo(FΦR4-A5)^Rho]
Uptake more efficient than corresponding monocyclic peptide (compound 17) [12]: ~3 fold

cFΦR4-PTP1B: cFΦR4 conjugated to ybbR-tagged PTP1B catalytic domain via a thioether bond
Global pY protein levels [13]: concentration-dependent decrease in pY levels

cyclo(FΦRRRRQ)-FFFF-K(Rho) (cyclo(F[2Nal]RRRRQFFFFK(RhodamineB)); not fully specified (C-terminus, bridges); printed as cyclo(FΦRRRRQ)-FFFF-K(Rho)) [cFΦR4-F4]
Aqueous solubility [14]: poor

Reference: patent US10815276B2, “Cell penetrating peptides and methods of making and using thereof” (Entrada Therapeutics, Inc., priority 2014, dated 2020)
